Assay results from PMC9241695, “Selective Metal Chelation by a Thiosemicarbazone Derivative Interferes with Mitochondrial Respiration and Ribosome Biogenesis in Candida albicans” (Microbiology Spectrum, 2022).
≈ marks a conversion by molar mass, not a printed value. Read-outs that look alike come from different tables or passages of the source.

Key:
C. albicans SC5314 [1] = test: Antifungal susceptibility testing, microbroth dilution MIC; type: cell-based; settings: Candida albicans, read-out: MIC (μg/mL) against fungi SC5314
Description: (§1) Compound library. The thiosemicarbazone derivatives Triapine and COTI-2 were purchased from Med Chem Express (MCE). The other 87 thiosemicarbazones used in this study were previously synthesized by our collaborators (1, 2). Their structures are shown in Table 1 and Table S1 to help the reader clearly understand the relationship between structure and activity.
(§2) Strains and culture conditions. Clinically derived C. albicans isolates, including G5, F5, and Gu5, were kindly provided by Professor Joachim Morschhäuser of the University of Würzburg. Other clinical C. albicans isolates were kindly donated by Professor Qingguo Qi of Shandong University and Qianfoshan Hospital of Shandong Province Other Candida strains were obtained from Jinan Central Hospital.
(§3) The zap1 mutant and its complemented strain were kindly provided by Professor Aaron P. Mitchell of Carnegie Mellon University (3). The C. neoformans strains used in this study was kindly donated by Professor Guojian Liao of Southwest University and A. fumigatus strain used in this study was provided by Professor Ling Lu of Nanjing Normal University. Before in vitro and in vivo experiments, all C. albicans strains were grown on YPD agar plates. After culturing at 30°C for 24 h, colonies of each strain were cultured in liquid YPD medium at 30°C with continuous shaking […]
(§4) Antifungal susceptibility testing. To determine in vitro antifungal activities, the microbroth dilution method was carried out in RPMI1640 medium according to the guidelines of the Clinical and Laboratory Standards Institute (4, 5). The initial concentration in RPMI1640 medium was 1 × 10^3 CFU/mL for the C. albicans and C. neoformans suspensions but 1 × 10^4 CFU/mL for A. fumigatus. The range of final drug concentrations was 0.0156–64 μg/mL. The plates were incubated at35°C for 24 […]
(§5) h (for C. albicans, C. krusei, C. tropicalis, C. parapsilosis) or 48 h (for C. neoformans, A. fumigatus). The MIC was determined based on visible growth inhibition compared with the control. All experiments were performed in duplicate. […]

A. fumigatus AF293 = test: as above; type: cell-based; settings: Aspergillus fumigatus, read-out: MIC (μg/mL) against fungi AF293
Description: as §1, §2
(§6) The zap1 mutant and its complemented strain were kindly provided by Professor Aaron P. Mitchell of Carnegie Mellon University (3). The C. neoformans strains used in this study was kindly donated by Professor Guojian Liao of Southwest University and A. fumigatus strain used in this study was provided by Professor Ling Lu of Nanjing Normal University. […]
as §4, §5

C. neoformans H99 = test: as above; type: cell-based; settings: Cryptococcus neoformans, read-out: MIC (μg/mL) against fungi H99
Description: as §1, §2, §6, §4, §5

C. albicans SC5314 [2] = test: qPCR of genes associated with ribosome biogenesis; type: cell-based, Candida albicans; settings: CPX 0.5 or 2 μg/mL 8 h; DFO 64 µg/mL 6 h; TPEN 0.05 or 0.2 μg/mL 6 h
Procedure: Determination of SOD activity. SOD activity was measured using the Superoxide Dismutase Activity Assay Kit (Njjcbio, Nanjing, China) following the manufacturer's instructions. An overnight culture of C. albicans SC5314 was adjusted to 1 × 10^7 cells/mL with RPMI1640 medium and treated with 19ak at a final concentration of 0, 0.125, 0.25, 0.5, or 1 μg/mL for 6 h. After collection by centrifugation, the cells were broken by glass beads in extraction buffer and centrifuged at 4°C. The absorbance of the supernatant of each sample was measured with a microplate reader at450 nm.
Determination of catalase (CAT) activity. CAT activity was measured by using a Catalase Assay Kit (Solarbio, Beijing, China) following the manufacturer's instructions. An overnight culture of C. albicans SC5314 was adjusted to 1 × 10^6 cells/mL with RPMI1640 medium and treated as described above for SOD activity.
The decomposition of H2O2 is directly accompanied by a decrease in absorbance at 240 nm, and the difference in absorbance per unit time (ΔA240) is a measure of […]
Quantitative real-time polymerase chain reaction (qPCR) analysis. C. albicans SC5314 cells (1 × 10^6 cells/mL) were incubated with or without 19ak (0.5,2 […]
Total RNA was extracted using the hot phenol method, and the RNA quality was analyzed using a spectrophotometer (Eppendorf, Hamburg, Germany). The RNA was converted to cDNA using a cDNA Reverse
Transcription kit (Accurate Biotechnology, Hunan, China). PCR detection based on SYBR Green was performed on an Eppendorf real-time PCR system (Eppendorf, […]
Drug resistance study. Drug resistance studies were carried out by repeatedly treating C. albicans with an antifungal agent followed by MIC determination using […]

[3] = system: human bronchial epithelial cell line 16HBE; test: Cytotoxicity testing (MTT); type: cell-based; settings: ratio of IC50 against 16HBE to MIC80 against C. albicans SC5314
Procedure: (§7) h (for C. albicans, C. krusei, C. tropicalis, C. parapsilosis) or 48 h (for C. neoformans, A. fumigatus). The MIC was determined based on visible growth inhibition compared with the control. All experiments were performed in duplicate.
(§8) Cytotoxicity testing. The cell lines HK2 and 16HBE were used to evaluate the cytotoxicity of 19ak, 19k and 19t. Cells in DMEM containing 10% fetal bovine serum (Gibco) were seeded in 96-well tissue culture plates at a cell density of 1 × 10^4 cells/mL and incubated for 24 h to allow adhesion. The supernatant was then replaced with fresh DMEM containing various concentrations of 19ak, 19k and 19t. The plates were subsequently incubated for an additional 48 h at 37°C with 5% CO2, followed by the addition of 10 μL of MTT solution to each well and incubation at 37°C for 4 h.
(§9) The effects of the compounds on cell proliferation were detected by measuring the absorbance at 570 nm in a microplate reader (BioTek, VT, USA). Three independent experiments were conducted. […]

[4] = Cytotoxicity testing (MTT); type: cell-based, human; settings: human, 48 h, MTT
Procedure: as §7, §8, §9

[5] = system: human renal epithelial cell line HK2; test: Cytotoxicity testing (MTT); type: cell-based; settings: ratio of IC50 against HK2 to MIC80 against C. albicans SC5314
Procedure: as §7, §8, §9

C. albicans 24g = test: Microbroth dilution MIC80; type: cell-based; settings: Candida albicans, 24G
Description: as §1, §2, §3, §4, §5

C. albicans F5 = test: Microbroth dilution MIC80; type: cell-based; settings: Candida albicans, F5
Description: as §1, §2, §3, §4, §5

C. albicans DSY654 = test: Microbroth dilution MIC80; type: cell-based; settings: Candida albicans
Description: as §1, §2, §3, §4, §5

A. fumigatus 1161 = test: Microbroth dilution MIC80; type: cell-based; settings: Aspergillus fumigatus, 1161
Description: as §1, §2, §3, §4, §5

C. albicans CA4 = test: Microbroth dilution MIC80; type: cell-based; settings: Candida albicans, CA4
Description: as §1, §2, §3, §4, §5

C. tropicalis CT2 = test: Microbroth dilution MIC80; type: cell-based; settings: Candida tropicalis, CT2
Description: as §1, §2, §3, §4, §5

C. albicans YEM15 = test: Microbroth dilution MIC80; type: cell-based; settings: Candida albicans, YEM15
Description: as §1, §2, §3, §4, §5

C. albicans CA1 = test: Microbroth dilution MIC80; type: cell-based; settings: Candida albicans, CA1
Description: as §1, §2, §3, §4, §5

C. albicans CA3 = test: Microbroth dilution MIC80; type: cell-based; settings: Candida albicans, CA3
Description: as §1, §2, §3, §4, §5

C. albicans 11f = test: Microbroth dilution MIC80; type: cell-based; settings: Candida albicans, 11F
Description: as §1, §2, §3, §4, §5

C. albicans 28D = test: Microbroth dilution MIC80; type: cell-based; settings: Candida albicans, 28D
Description: as §1, §2, §3, §4, §5

C. neoformans 108 = test: Microbroth dilution MIC80; type: cell-based; settings: Cryptococcus neoformans, 108
Description: as §1, §2, §3, §4, §5

C. albicans YEM13 = test: Microbroth dilution MIC80; type: cell-based; settings: Candida albicans
Description: as §1, §2, §3, §4, §5

C. albicans 28A = test: Microbroth dilution MIC80; type: cell-based; settings: Candida albicans, 28A
Description: as §1, §2, §3, §4, §5

C. albicans 11e = test: Microbroth dilution MIC80; type: cell-based; settings: Candida albicans, 11E
Description: as §1, §2, §3, §4, §5

C. albicans 28I = test: Microbroth dilution MIC80; type: cell-based; settings: Candida albicans, 28I
Description: as §1, §2, §3, §4, §5

[6] = Cytotoxicity testing (MTT); type: cell-based, human; settings: human, HepG2 cells (hepatocellular carcinoma cell line)
[7] = system: human hepatocellular carcinoma cell line HepG2; test: Cytotoxicity testing (MTT); type: cell-based; settings: ratio of IC50 against HepG2 to MIC80 against C. albicans SC5314
C. krusei CK1 = test: Microbroth dilution MIC80; type: cell-based, Candida krusei; settings: Pichia kudriavzevii, CK1
Description: as §1, §2, §3, §4, §5

C. parapsilosis CP001 = test: Microbroth dilution MIC80; type: cell-based, Candida parapsilosis; settings: Lodderomyces parapsilosis, CP001
Description: as §1, §2, §3, §4, §5

C. albicans SC5314 [8] = test: Minimal fungicidal concentration (MFC); type: cell-based; settings: Candida albicans, read-out: MFC against C. albicans SC5314
C. albicans Gu5 = test: microbe, parasite or virus in culture; type: cell-based; settings: Candida albicans, GU5
Description: as §1, §2, §3, §4, §5

C. albicans G5 = test: microbe, parasite or virus in culture; type: cell-based; settings: Candida albicans, G5
Description: as §1, §2, §3, §4, §5

## C/C(=N\NC(=S)Nc1cccc(Br)c1)c1ccccn1 [Compound 19q]
C. albicans SC5314 [1]; SC5314, 24 h
  MIC: 0.5 µg/mL (≈ 1.43 µM)
A. fumigatus AF293; AF293, 48 h
  MIC: 1 µg/mL (≈ 2.86 µM)
C. neoformans H99; H99, 48 h
  MIC: 0.25 µg/mL (≈ 0.716 µM)

## Cc1cc(C2CCCCC2)n(O)c(=O)c1 [CPX, ciclopirox olamine]
C. albicans SC5314 [2]
  Expression of genes associated with ribosome biogenesis (qPCR): no obvious effect

## S=C(N/N=C(\c1ccccc1)c1ccccn1)Nc1ccccc1Br [Compound 19x]
C. albicans SC5314 [1]; SC5314, 24 h
  MIC: 1 µg/mL (≈ 2.43 µM)
A. fumigatus AF293; AF293, 48 h
  MIC: 16 µg/mL (≈ 38.9 µM)
C. neoformans H99; H99, 48 h
  MIC: 0.5 µg/mL (≈ 1.22 µM)

## S=C(N/N=C/c1ccc(Br)cn1)Nc1ccc(Br)cc1 [Compound 19k]
C. albicans SC5314 [1]; SC5314, C. albicans wild-type strain, RPMI1640, 35°C, 24 h
  MIC: 1 µg/mL (≈ 2.41 µM)
[3]
  Selectivity index 16HBE: 36.43
[4]; 16HBE cells (bronchial epithelial cell line), 16HBE cells
  IC50 at 48 h: 36.4 µg/mL (≈ 88 µM)
[4]; HK2 cells (renal epithelial cell line), HK2 cells
  IC50 at 48 h: 63.9 µg/mL (≈ 154 µM)
[5]
  Selectivity index HK2: 63.88
C. albicans 24g
  MIC80: 1 µg/mL (≈ 2.41 µM)
C. albicans F5
  MIC80: 1 µg/mL (≈ 2.41 µM)
C. albicans DSY654
  MIC80: 1 µg/mL (≈ 2.41 µM)
A. fumigatus 1161
  MIC80: 0.5 µg/mL (≈ 1.21 µM)
C. albicans CA4
  MIC80: 0.5 µg/mL (≈ 1.21 µM)
C. tropicalis CT2
  MIC80: 2 µg/mL (≈ 4.83 µM)
C. albicans YEM15
  MIC80: 2 µg/mL (≈ 4.83 µM)
C. albicans CA1
  MIC80: 1 µg/mL (≈ 2.41 µM)
C. albicans CA3
  MIC80: 1 µg/mL (≈ 2.41 µM)
C. albicans 11f
  MIC80: 2 µg/mL (≈ 4.83 µM)
C. albicans 28D
  MIC80: 1 µg/mL (≈ 2.41 µM)
C. neoformans 108
  MIC80: 0.031 µg/mL (≈ 0.0749 µM)
C. albicans YEM13
  MIC80: 2 µg/mL (≈ 4.83 µM)
C. albicans 28A
  MIC80: 2 µg/mL (≈ 4.83 µM)
C. albicans 11e
  MIC80: 2 µg/mL (≈ 4.83 µM)
C. albicans 28I
  MIC80: 1 µg/mL (≈ 2.41 µM)
[6]
  IC50: 28 µg/mL (≈ 67.6 µM)
[7]
  Selectivity index HepG2: 28
C. krusei CK1
  MIC80: 4 µg/mL (≈ 9.66 µM)
C. parapsilosis CP001
  MIC80: 2 µg/mL (≈ 4.83 µM)
C. albicans SC5314 [8]
  MFC: > 64 µg/mL
A. fumigatus AF293; AF293, standard strain of A. fumigatus, 48 h
  MIC: 8 µg/mL (≈ 19.3 µM)
C. neoformans H99; H99, C. neoformans wild-type strain, 48 h
  MIC: 0.031 µg/mL (≈ 0.0749 µM)
C. albicans Gu5
  MIC80: 2 µg/mL (≈ 4.83 µM)
C. albicans G5
  MIC80: 4 µg/mL (≈ 9.66 µM)

## S=C(N/N=C1\CCCc2cccnc21)N1CCN(c2ccccn2)CC1 [COTI-2, 4-(pyridine-2-yl)-N-([(8E)-5,6,7,8-tetrahydroquinolin-8-ylidene]amino) piperazine-1-carbothioamide, reference compound]
C. albicans SC5314 [1]; SC5314, 24 h
  MIC: 0.5 µg/mL (≈ 1.36 µM)
A. fumigatus AF293; AF293, 48 h
  MIC: 1 µg/mL (≈ 2.73 µM)
C. neoformans H99; H99, 48 h
  MIC: 0.0625 µg/mL (≈ 0.171 µM)

## C/C(=N\NC(=S)Nc1ccccc1Br)c1ccccn1 [Compound 19r]
C. albicans SC5314 [1]; SC5314, 24 h
  MIC: 1 µg/mL (≈ 2.86 µM)
A. fumigatus AF293; AF293, 48 h
  MIC: 8 µg/mL (≈ 22.9 µM)
C. neoformans H99; H99, 48 h
  MIC: 8 µg/mL (≈ 22.9 µM)

## COc1ccc(NC(=S)N/N=C(\C)c2ccccn2)cc1 [Compound 19s]
C. albicans SC5314 [1]; SC5314, 24 h
  MIC: 2 µg/mL (≈ 6.66 µM)
A. fumigatus AF293; AF293, 48 h
  MIC: 8 µg/mL (≈ 26.6 µM)
C. neoformans H99; H99, 48 h
  MIC: 0.25 µg/mL (≈ 0.832 µM)
